System: remyelination in cuprizone-induced demyelination
Experiment: Mouse cuprizone-induced demyelination model (Black-gold II staining)
Assay type: in vivo, C57BL/6 mice
Details: forebrain and hindbrain; for myelin staining intensity of corpus callosum (percentage of mean density of naïve control): vehicle 15.75%; for demyelination area, corpus callosum: vehicle 54.81%
Protocol: The ability of the compound of Example 1 to enhance in vivo remyelination was determined with the mouse cuprizone-induced demyelination model.
The cuprizone model was conducted with the protocol as follows: the C57BL/6 mice at age of 8 weeks were fed with powder mouse food mixed freshly with 0.2% cuprizone (w/w) for 5 weeks to induce demyelination, then animals were allowed to recover (removal of cuprizone from the diet) and administrated with Example compound 1, at 0.3 mg/kg, 1 mg/kg, 3 mg/kg and 10 mg/kg body weight orally, b.i.d. for an additional 9 days prior to sacrifice. The brain samples were collected for assessment of myelination. The compound of Example 1 was formulated as a suspension using 1% aqueous methylcellulose as the vehicle.
Mice were deeply anesthetized and quickly perfused with 0.9% saline via the left cardiac ventricle to drain out blood. Whole brains were taken out and put into 15 ml tube with 4% paraformaldehyde (PFA) for post-fixation overnight, then soaked in 30% sucrose for 24-48 h to dehydrate. For frozen embedding, brains were immediately snap frozen in isopentane mixed with dry ice and then embedded in optimal cutting temperature solution (OCT). Whole brains were sectioned at coronal position from Bregma −2.46 mm to 1.18 mm according to mouse atlas by Paxinos and Franklin (The Mouse Brain in Stereotaxic Coordinates—3rd Edition) with cryostat (MICROM HM525) at a thickness of 30 μm. All sections were put into 96-well plate filled with anti-freezing solution [300 g sucrose dissolved in 500 ml 0.1 M PB solution (combine 11.505 g Na2HPO4 and 2.275 g NaH2PO4, dilute to 1 L with distilled water, adjust pH to 7.4) plus 300 ml Ethylene glycol and dilute to 1 L with distilled water]. For Black-gold II staining, 2 sections from forebrain around the bregma 0.86 mm and 2 sections from hindbrain around the bregma −1.58 mm for each mouse respectively were chosen according to mouse atlas by Paxinos and Franklin. Black-gold II staining for detection of myelination was performed according to a protocol adapted from the manufacturer (AG105, Millipore). Briefly, 2 free-floating sections from forebrain and 2 sections from hindbrain were rehydrated 2× in MilliQ water for 2 minutes each time and then stained in a 24-well plate with 0.3% Black-gold II solution at 60° C. for 20 minutes. The sections were monitored to determine the extent of staining. When the finest myelinated fibers were stained dark red to black, the staining process was stopped. The sections were then rinsed 2× in MilliQ water for 2 minutes each time. Then the sections were treated with Sodium thiosulfate solution (1%) for 6 minutes at 60° C. After rinsing in PBST (0.05% Triton X100 in PBS), sections were mounted on slides (Leica Microsystems Plus Slides) and further air-dried on 37° C. heating platform for 2-4 hours. The dehydrated slides were coverslipped with robotic coverslipper (CV5030, Leica). Stained slides were scanned by Scanscope (Aperio Technologies Inc.). Digital images of central corpus callosum or cortex close to cingulum were captured using ImageScope (Aperio Technologies Inc.) at the magnification of 20×.
Image-Pro 6.3 software (Media Cybernetics, Bethesda, Md. 20814 USA) was used for subsequent quantitative evaluation. Threshold was set to Black-gold II staining in each gated corpus callosum and held constant for images obtained at equal objectives and light intensities on slides that were processed. Two parameters were used here: area and IOD (Integrated Optical Density). For measurement of demyelination area, all digital images were set under the same colour range after converted to a greyscale value of 8. Demyelination area indicated by void of Black-gold staining and total area of central corpus callosum at 20× magnification were measured separately on each image. Mean demyelination area was calculated as: (demyelination area/total area of central corpus callosum)×100. […]

O=C1CCCN1c1ccc(Oc2ccc3c(c2)CCN(C2CCC2)CC3)nc1 [Example compound 1, 1-{6-[(3-cyclobutyl-2,3,4,5-tetrahydro-1H-3-benzazepin-7-yl)oxy]-3-pyridinyl}-2-pyrrolidinone]
myelin staining intensity of corpus callosum (percentage of mean density of naïve control) (0.3 mg/kg orally b.i.d. 9 days): 18.61%±1.01% | demyelination area, corpus callosum (0.3 mg/kg orally b.i.d. 9 days): 46.82%±3.54% | myelin staining intensity of corpus callosum (percentage of mean density of naïve control) (1 mg/kg orally b.i.d. 9 days): 22.00%±3.41% | demyelination area, corpus callosum (1 mg/kg orally b.i.d. 9 days): 38.45%±7.55% | myelin staining intensity of corpus callosum (percentage of mean density of naïve control) (3 mg/kg orally b.i.d. 9 days): 28.32%±7.76% | demyelination area, corpus callosum (3 mg/kg orally b.i.d. 9 days): 41.22%±11.14% | myelin staining intensity of corpus callosum (percentage of mean density of naïve control) (10 mg/kg orally b.i.d. 9 days, P<0.05): 26.36%±3.10% | demyelination area, corpus callosum (10 mg/kg orally b.i.d. 9 days, P<0.01): 27.62%±5.20%
